Results taken from article PMC11129182, “Development of Inhibitors, Probes, and PROTAC Provides a Complete Toolbox to Study PARK7 in the Living Cell” (Journal of Medicinal Chemistry, 2024).
Where two headings read alike, the source gives them in different places.

How the values were obtained:
PARK7 [1] = biological target: T1, PARK7 (Homo sapiens, UniProt Q99497); assay: Hit validation and pure-compound testing in the PARK7 FP assay with JYQ-107; type: biochemical; conditions: pure compounds
T1 sequence (Q99497 1-189): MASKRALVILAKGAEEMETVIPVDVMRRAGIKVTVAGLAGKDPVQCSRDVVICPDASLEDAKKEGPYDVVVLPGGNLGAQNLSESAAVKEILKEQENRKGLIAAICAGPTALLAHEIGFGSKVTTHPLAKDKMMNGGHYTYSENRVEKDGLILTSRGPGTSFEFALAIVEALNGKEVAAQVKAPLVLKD

PARK7 [2] = biological target: T1, PARK7; assay: High-throughput screen of the crude compound library, PARK7 fluorescence polarization (FP) assay with FP reagent JYQ-107; type: biochemical; conditions: read-out: HTS FP assay %Inhibition (1.25 µM)
[3] = 1.25 µM, crude compound library
[4] = 1.25 µM, crude compound library, FP reagent JYQ-107

Molecule | inhibition at 1.25 µM (PARK7 [2]; [3]) | other results
(R)-1-Cyano-N-(5-(4-hydroxybenzoyl)-4,5,6,7-tetrahydrothiazolo[5,4-c]pyridin-2-yl)pyrrolidine-3-carboxamide [Compound 3] |  | % Inhibition 0.25 µM (PARK7 [1]; 0.25 µM): 58.4%; % Inhibition 1 µM (PARK7 [1]; 1 µM): 90.1%; potency in FP assay compared to JYQ-88 (PARK7 [1]; 0.25 and 1 μM): slight improvement in potency compared to JYQ-88
N#CN1CC[C@@H](C(=O)Nc2nc3c(s2)CN(C(=O)C2CCCN2C(=O)c2ccncc2)CC3)C1 (some centres unmarked) [compound 206] | 50.6% | 
CN(Cc1ccccc1)S(=O)(=O)c1ccc(C(=O)N2CCc3nc(NC(=O)[C@@H]4CCN(C#N)C4)sc3C2)cc1 [compound 183] | 65.5% | 
N#CN1CC[C@@H](C(=O)Nc2nc3c(s2)CN(C(=O)Cc2csc(-c4cccs4)n2)CC3)C1 [compound 105] | 85.3% | 
N#CN1CC[C@@H](C(=O)Nc2nc3c(s2)CNCC3)C1 [amine] |  | inhibition at 1.25 µM (PARK7 [2]): 39.9%
N#CN1CC[C@@H](C(=O)Nc2nc3c(s2)CN(C(=O)c2cnn(CC4CCC4)c2)CC3)C1 [compound 372] |  | inhibition at 1.25 µM (PARK7 [2]; [4]): 81.6%
N#CN1CC[C@@H](C(=O)Nc2nc3c(s2)CN(C(=O)c2cn[nH]c2C2CC2)CC3)C1 [compound 357] |  | inhibition at 1.25 µM (PARK7 [2]; [4]): 69.7%
CN1CCC(C(=O)N2CCc3nc(NC(=O)[C@@H]4CCN(C#N)C4)sc3C2)CC1 [compound 474] |  | inhibition at 1.25 µM (PARK7 [2]; [4]): 72.5%
CN(Cc1ccccc1)C(=O)N1CCC(C(=O)N2CCc3nc(NC(=O)[C@@H]4CCN(C#N)C4)sc3C2)CC1 [compound 250] | 67.7% | 
N#CN1CC[C@@H](C(=O)Nc2nc3c(s2)CN(C(=O)C2CCN(c4ccc(=O)[nH]n4)CC2)CC3)C1 [compound 89] | 68.2% | 
N#CN1CC[C@@H](C(=O)Nc2nc3c(s2)CN(C(=O)c2ccc(N4CCOCC4)cc2)CC3)C1 [compound 473] |  | inhibition at 1.25 µM (PARK7 [2]; [4]): 72.4%
N#CN1CC[C@@H](C(=O)Nc2nc3c(s2)CN(C(=O)CCCCCBr)CC3)C1 [compound 412] |  | inhibition at 1.25 µM (PARK7 [2]; [4]): 52.5%
CC(C(=O)N1CCc2nc(NC(=O)[C@@H]3CCN(C#N)C3)sc2C1)n1nc(C(F)(F)F)cc1C1CC1 (some centres unmarked) [compound 143] | 64.1% | 
N#CN1CC[C@@H](C(=O)Nc2nc3c(s2)CN(C(=O)c2ccc(-n4cccn4)cc2)CC3)C1 [compound 203] | 70.1% | 
Cn1cc(-c2ocnc2C(=O)N2CCc3nc(NC(=O)[C@@H]4CCN(C#N)C4)sc3C2)cn1 [compound 18] | 60.9% | 
Cn1cc(S(=O)(=O)NCc2ccco2)cc1C(=O)N1CCc2nc(NC(=O)[C@@H]3CCN(C#N)C3)sc2C1 [compound 73] | 82.4% | 
N#CN1CC[C@@H](C(=O)Nc2nc3c(s2)CN(C(=O)CC2C(=O)Nc4ccccc42)CC3)C1 (some centres unmarked) [compound 465] |  | inhibition at 1.25 µM (PARK7 [2]; [4]): 81.8%
CN(Cc1ccco1)c1ccccc1C(=O)N1CCc2nc(NC(=O)[C@@H]3CCN(C#N)C3)sc2C1 [compound 67] | 72.7% | 
CSCCC(NC(C)=O)C(=O)N1CCc2nc(NC(=O)[C@@H]3CCN(C#N)C3)sc2C1 (some centres unmarked) [compound 388] |  | inhibition at 1.25 µM (PARK7 [2]; [4]): -53.2%

Molecule | inhibition at 1.25 µM (PARK7 [2]; [3]) | other results
N#CN1CC[C@@H](C(=O)Nc2nc3c(s2)CN(C(=O)Cc2coc(-c4ccccc4)n2)CC3)C1 [compound 52] | 78.3% | 
Cc1oc(Cn2cc(Br)cn2)cc1C(=O)N1CCc2nc(NC(=O)[C@@H]3CCN(C#N)C3)sc2C1 [compound 72] | 87% | 
N#CN1CC[C@@H](C(=O)Nc2nc3c(s2)CN(C(=O)c2ccc4cc5ccccc5cc4c2)CC3)C1 [compound 455] |  | inhibition at 1.25 µM (PARK7 [2]; [4]): 79.5%
COc1ccc(S(=O)(=O)N(CCC(=O)N2CCc3nc(NC(=O)[C@@H]4CCN(C#N)C4)sc3C2)Cc2ccccc2)cc1 [compound 342] | 85.1% | 
N#CN1CC[C@@H](C(=O)Nc2nc3c(s2)CN(C(=O)c2cc(-c4cccc(Cl)c4)no2)CC3)C1 [compound 245] | 10.9% | 
CC(C)c1cc(C(=O)N2CCc3nc(NC(=O)[C@@H]4CCN(C#N)C4)sc3C2)n(-c2ccccc2)n1 [compound 378] |  | inhibition at 1.25 µM (PARK7 [2]; [4]): 87%
CN(Cc1ccnn1C)C(=O)C1CCCCC1C(=O)N1CCc2nc(NC(=O)[C@@H]3CCN(C#N)C3)sc2C1 (some centres unmarked) [compound 193] | 73% | 
CCn1ccc(-c2cc(C(=O)N3CCc4nc(NC(=O)[C@@H]5CCN(C#N)C5)sc4C3)no2)n1 [compound 365] |  | inhibition at 1.25 µM (PARK7 [2]; [4]): 78.3%
N#CN1CC[C@@H](C(=O)Nc2nc3c(s2)CN(C(=O)c2cnn(Cn4cc(Cl)cn4)c2)CC3)C1 [compound 237] | 80% | 
N#CN1CC[C@@H](C(=O)Nc2nc3c(s2)CN(C(=O)c2ccc(S(=O)(=O)N4CCOCC4)cc2)CC3)C1 [compound 98] | 78.4% | 
N#CN1CC[C@@H](C(=O)Nc2nc3c(s2)CN(C(=O)c2nc(C4CC4)ncc2Br)CC3)C1 [compound 255] | 74% | 
COc1ccc(N2CCN(C(C)C(=O)N3CCc4nc(NC(=O)[C@@H]5CCN(C#N)C5)sc4C3)CC2)cc1 (some centres unmarked) [compound 46] | 71.3% | 
Cc1cc(C)c(C(=O)N2CCc3nc(NC(=O)[C@@H]4CCN(C#N)C4)sc3C2)c(OCC2CCCCC2)n1 [compound 47] | 75.4% | 
N#CN1CC[C@@H](C(=O)Nc2nc3c(s2)CN(C(=O)c2ccc(N4CCCC4)c(F)c2)CC3)C1 [compound 211] | 86.4% | 
COc1ccc(CN2CCC2C(=O)N2CCc3nc(NC(=O)[C@@H]4CCN(C#N)C4)sc3C2)cc1 (some centres unmarked) [compound 228] | 62.2% | 
COc1ccccc1-c1cc(C(=O)N2CCc3nc(NC(=O)[C@@H]4CCN(C#N)C4)sc3C2)n[nH]1 [compound 452] |  | inhibition at 1.25 µM (PARK7 [2]; [4]): 84.6%
N#CN1CC[C@@H](C(=O)Nc2nc3c(s2)CN(C(=O)c2ncoc2-c2ccco2)CC3)C1 [compound 62] | 78.9% | 
N#CN1CC[C@@H](C(=O)Nc2nc3c(s2)CN(C(=O)c2cnn(CCN4CCCC4)c2)CC3)C1 [compound 137] | 70.1% | 
N#CN1CC[C@@H](C(=O)Nc2nc3c(s2)CN(C(=O)C2CC(=O)N(CCOc4ccccc4Cl)C2)CC3)C1 (some centres unmarked) [compound 101] | 79.1% | 

Molecule | inhibition at 1.25 µM (PARK7 [2]; [3]) | other results
N#CN1CC[C@@H](C(=O)Nc2nc3c(s2)CN(C(=O)CC(O)(c2nccn2Cc2ccccc2)C(F)(F)F)CC3)C1 (some centres unmarked) [compound 29] | 78.4% | 
Cc1csc(N2CCCC(C(=O)N3CCc4nc(NC(=O)[C@@H]5CCN(C#N)C5)sc4C3)C2)n1 (some centres unmarked) [compound 142] | 85.9% | 
N#CN1CC[C@@H](C(=O)Nc2nc3c(s2)CN(C(=O)c2csc(-c4ccc(Br)s4)n2)CC3)C1 [compound 208] | 86.4% | 
CCOc1oc(-c2ccco2)nc1C(=O)N1CCc2nc(NC(=O)[C@@H]3CCN(C#N)C3)sc2C1 [compound 246] | 82.7% | 
N#CN1CC[C@@H](C(=O)Nc2nc3c(s2)CN(C(=O)C2CC(=O)N(CCN4CCOCC4)C2)CC3)C1 (some centres unmarked) [compound 117] | 71.4% | 
Cc1sc(-n2cnnn2)c(C(=O)N2CCc3nc(NC(=O)[C@@H]4CCN(C#N)C4)sc3C2)c1C [compound 243] | 61.9% | 
CC(C)(C)OC(=O)N[C@@H](Cc1cn(-c2ccc([N+](=O)[O-])cc2[N+](=O)[O-])cn1)C(=O)N1CCc2nc(NC(=O)[C@@H]3CCN(C#N)C3)sc2C1 [compound 409] |  | inhibition at 1.25 µM (PARK7 [2]): 75.4%
Cc1nn(-c2ccccn2)c(C)c1CC(=O)N1CCc2nc(NC(=O)[C@@H]3CCN(C#N)C3)sc2C1 [compound 231] | 67.1% | 
N#CN1CC[C@@H](C(=O)Nc2nc3c(s2)CN(C(=O)C2CC4CCC2O4)CC3)C1 (some centres unmarked) [compound 273] | 67.4% | 
CCCC(=O)N1CCc2nc(NC(=O)[C@@H]3CCN(C#N)C3)sc2C1 [compound 394] |  | inhibition at 1.25 µM (PARK7 [2]; [4]): 70.5%
Cc1noc(C)c1COc1ccc(CC(=O)N2CCc3nc(NC(=O)[C@@H]4CCN(C#N)C4)sc3C2)cc1 [compound 107] | 82.7% | 
Cc1cccc(C(=O)N2CCCCC2C(=O)N2CCc3nc(NC(=O)[C@@H]4CCN(C#N)C4)sc3C2)n1 (some centres unmarked) [compound 68] | 66.5% | 
Cc1cc(NS(=O)(=O)c2cccc(C(=O)N3CCc4nc(NC(=O)[C@@H]5CCN(C#N)C5)sc4C3)c2)no1 [compound 96] | 77.9% | 
Cc1ccc(Br)c(C(=O)N2CCc3nc(NC(=O)[C@@H]4CCN(C#N)C4)sc3C2)c1 [compound 420] |  | inhibition at 1.25 µM (PARK7 [2]; [4]): 83.3%
CN(CC(=O)N1CCCC(C(=O)N2CCc3nc(NC(=O)[C@@H]4CCN(C#N)C4)sc3C2)C1)c1ccc(Cl)cn1 (some centres unmarked) [compound 157] | 83.5% | 
N#CN1CC[C@@H](C(=O)Nc2nc3c(s2)CN(C(=O)c2ccc(Cn4ccccc4=O)o2)CC3)C1 [compound 366] |  | inhibition at 1.25 µM (PARK7 [2]; [4]): 79.5%
N#CN1CC[C@@H](C(=O)Nc2nc3c(s2)CN(C(=O)CC2CCN(c4ccc(Cl)nn4)CC2)CC3)C1 [compound 371] |  | inhibition at 1.25 µM (PARK7 [2]; [4]): 74.8%
N#CN1CC[C@@H](C(=O)Nc2nc3c(s2)CN(C(=O)CC2=NN(c4ncc(C(F)(F)F)cc4Cl)C(=O)C2)CC3)C1 [compound 109] | 68.1% | 
COc1ccc(OCc2cc(C)on2)c(C(=O)N2CCc3nc(NC(=O)[C@@H]4CCN(C#N)C4)sc3C2)c1 [compound 116] | 81.9% | 
